The results in this text go back to patent US20170052172A1, “IMMUNE HEPATOTOXICITY SCREENING METHOD USING HEPATOCYTES DERIVED FROM HUMAN STEM CELLS” (KOREA ADVANCED INSTITUTE OF SCIENCE AND TECHNOLOGY, priority 2014, published 2017).

Data set [1] relates to human hepatocytes (hES15). The experiment in a line: Cytokine ELISA secretion profiling of human hepatocytes after drug treatment.
Description: Upon completion of the culture, the maturation of hepatocytes was induced by the same manner as described in Example 1 and then the matured hepatocytes were obtained (FIG. 1).
(§1) Particularly, the hepatocytes at 19th day of the differentiation from human stem cells, which were prepared by the method described in Example 1, were distributed in a 6-well plate (90%/well), and then the medium was replaced with 1000 mg/L DMEM-low glucose medium (Dulbecco's Modified Eagle's Medium, Welgene No. 001-11), followed by culture for 2 hours. Then, the stem cell derived hepatocyte culture medium was obtained. To eliminate by-products of the cell culture, centrifugation was performed at 12,000×g, for 20 minutes at 4° C. Supernatant was obtained. The capture antibodies, 2.5 μg/ml anti-IL-1β antibody, 2 μg/ml anti-IL-6 antibody, 2.5 μg/ml anti-IL-10 antibody, 2 μg/ml anti-IL-12 antibody, 1 μg/ml anti-TNF-α antibody, 2 μg/ml anti-IFN-α antibody, 1 μg/ml anti-IFN-β antibody, and 2 μg/ml anti-TGF-β antibody, were cultured at 37° C. for 2 hours, with which 96-well ELISA plate was coated. The plate was washed, followed by blocking with 0.2% I-block (Foster city, CA) at 37° C. for 2 hours. Upon completion of the blocking, the capture antibodies were washed and cultured with a standard material (2 fold serial diluted in protein free flexible plate from 10 ng/ml to 4.88 pg/ml) and the supernatant in ELISA plate (Greiner, Kremsmunster, Austria) at 37° C. for 2 hours. Upon completion of the culture, the biotinylated detection antibodies (anti-IL-1β antibody: 2 μg/ml, anti-IL-6 antibody: 1 μg/ml, anti-IL-10 antibody: 1 μg/ml, anti-IL-12 antibody: 1 μg/ml, anti-TNF-α antibody: 1 μg/ml, anti-IFN-α antibody: 4 μg/ml, anti-IFN-β antibody: 2 μg/ml, anti-TGF-β antibody: 1 μg/ml, final concentration) were added thereto, followed by further culture at 37° C. for 2 hours. Then, alkaline phosphatase conjugated streptavidin was added thereto, followed by further culture at room temperature for 30 minutes. 5 mM nitrophenyl phosphate substrate was added thereto, and OD405 was measured by using ELISA reader.
Particularly, the hepatocytes at 19th day of the differentiation from human stem cells, which were prepared by the method described in Example 1, were distributed in a 6-well plate (90%/well), and then the medium was replaced with 1000 mg/L DMEM-low glucose medium (Dulbecco's Modified Eagle's Medium, Welgene No. 001-11), followed by culture for 2 hours. […] Then, culture fluids of the hepatocytes differentiated from stem cells and the human hepatocytes were obtained to extract immunotoxic materials therefrom. To eliminate by-products of the cultured cells, centrifugation was performed at 12,000×g for 20 minutes at 4° C., and then supernatant was obtained. […]
The test system of data set [2] is hepatocytes differentiated from human embryonic stem cells (hESC4). Kind of data set: Cytokine ELISA secretion profiling of stem cell derived hepatocytes after drug treatment. As to conditions: ELISA of supernatant. A general note: An ELISA detects its analyte on a solid surface through an enzyme-linked reagent.
Description: as §1
(§2) Particularly, the hepatocytes at 19th day of the differentiation from human stem cells, which were prepared by the method described in Example 1, were distributed in a 6-well plate (90%/well), and then the medium was replaced with 1000 mg/L DMEM-low glucose medium (Dulbecco's Modified Eagle's Medium, Welgene No. 001-11), followed by culture for 2 hours.
For data set [3] the test system is unchanged.
Description: as §1, §2
Setting [4] is: CCl4 0, 5, 10, 20 mM for 24 hours, ELISA of supernatant.
Where [5] appears, read: CCl4 0, 5, 10, 20 mM for 24 hours.

For the compound `ClC(Cl)(Cl)Cl` [CCl4], the values for the IFN-α detected result in data set [1] (setting [4]) and in data set [2] (setting [5]) were “also detected in the cells” and “detected in the cells CCl4 dose dependently”, respectively. For the same compound, the IL-10 detected result is “also detected in the cells” in data set [1] (setting [4]) and “detected in the cells CCl4 dose dependently” in data set [2] (setting [5]). Further, the “cytokine secretion compared with hepatocytes differentiated from stem cells” value in data set [1] (considering the smaller number of human hepatocytes, CCl4: cytokines, acetaminophen: IL-6 and IFN-β) is “secreted more in human hepatocytes”. Moreover, the IL-6 detected result is listed as “also detected in the cells” in data set [1] (treatment for 24 hours (CCl4 0, 5, 10, 20 mM; acetaminophen 0, 10, 20 mM), ELISA of supernatant) and “detected in the cells CCl4 dose dependently” in data set [2] (treatment for 24 hours (CCl4 0, 5, 10, 20 mM; acetaminophen 0, 10, 20 mM)).
Regarding `CCO` [ethanol], the “ethanol induced toxic reaction” value in data set [3] is “did not show ethanol induced toxic reaction”.
